# Read-outs that look alike come from different tables or passages of the source. Peptide text beside a SMILES is read from it.
# Key:
# DPP-IV [1] = target: T1, DPP-IV (Homo sapiens, UniProt P27487); experiment: DPP-IV inhibitory assay (in vitro chemical system, Gly-Pro-pNA); format: biochemical; conditions: Gly-Pro-pNA substrate, pH 8, 37 °C, 60 min, mean ± SD
# T1 construct: purchased Sigma-Aldrich
# Description: The DPP-IV inhibitory activity of peptides was performed as previously reported with slight modifications. Briefly, peptides were diluted using 100 mM Tris-HCL buffer (pH = 8). Then, 25 μL diluted peptides were mixed with 25 μL of 1.6 mM Gly-Pro-pNA in a 96-well microplate and incubated at 37 °C for 10 min. […] The DPP-IV-inhibition (DI) was calculated with the following equation: DI%=1−AS−ASC/ANR−ANC×100% where AS (sample) is the optical density in the presence of peptide, DPP-IV, and Gly-Pro-pNA; ASC (sample control) is the optical density when DPP-IV is replaced with Tris-HCl buffer (100 mM, pH 8.0); ANR (negative reaction) is the optical density in the presence of only DPP-IV solution and Gly-Pro-pNA; and ANC (negative control) is the optical density in the absence of DPP-IV and peptide.
# Caco-2 cells = experiment: Cell viability assay (MTT); format: cell-based; conditions: 0.025~1 mg/mL, 12 h
# Description: (§1) The Caco-2 cells (Cell Bank of Shanghai Academy of Biological Science, Shanghai, China) were incubated at 37 °C in a 5% CO2 environment in DMEM supplemented with 10% FBS and 1% penicillin–streptomycin liquid. Unless otherwise stated below, the cells were cultivated at a density of 5 × 10^4 cells/mL in the culture dishes (Corning Inc., Corning, NY, USA). The cell culture medium was changed every two days, and the cells from passage numbers of 15–25 were used in this study.
# The cell viability was determined following the method described by You et al. with slight modification. Briefly, Caco-2 cells were seeded in 96-well microplates with a density of 1 × 10^4 cells/well and incubated at 37 °C with 5% CO2 for 24 h. […] After 12 h of intervention, 10 μL of MTT (0.05 mg) was added and incubated for another 4 h. Finally, the DMEM medium was replaced with 100 μL of DMSO and the absorbance of the solubilized crystals was detected at 490 nm (Molecular Devices SpectraMax M5, San Jose, CA, USA). The cell viability was calculated by the following equation:Cell viability (%) = (ODtest − ODblank)/(ODcontrol − ODblank) × 100%
# [2] = target: T2, DPP-IV activity of Caco-2 cells (Homo sapiens, UniProt P27487); experiment: In situ cell-based DPP-IV inhibition (Gly-Pro-AMC); conditions: 1 h at 37 °C, Gly-Pro-AMC 50 µM, mean ± SD (n = 3), read-out: In situ DPP-IV inhibitory activity IC50
# T2 construct: endogenous in cells; host or cells: Caco-2
# Description: as §1
# Briefly, 2 × 10^4 Caco-2 cells/well cells were seeded in 96-well microplates and cultivated for 24 h. […] Subsequently, 100 µL of the fluorescent substrate Gly-Pro-AMC (50 µM) was added to each well and incubated for 5 min. IPI was used as a positive control. Then, the florescence was monitored with excitation and emission wavelengths of 380 nm and 500 nm (Molecular Devices SpectraMax M5, San Jose, CA, USA).
# DPP-IV [3] = conditions: cited from earlier work
# [4] = peptides with molecular weights greater than 1000 Da, no reference given, read-out: DPP-IV inhibition IC50
# [5] = in vitro, identified in the intestinal tract following cow milk ingestion, read-out: DPP-IV inhibition IC50
# [6] = read-out: DPP-IV inhibition IC50
# [7] = in vitro inhibition test, camel-milk-derived protein hydrolysates
# [8] = competitive DPP-IV inhibitory peptides from camel whey protein, read-out: DPP-IV inhibition IC50
# T1 sequence (P27487 whole entry): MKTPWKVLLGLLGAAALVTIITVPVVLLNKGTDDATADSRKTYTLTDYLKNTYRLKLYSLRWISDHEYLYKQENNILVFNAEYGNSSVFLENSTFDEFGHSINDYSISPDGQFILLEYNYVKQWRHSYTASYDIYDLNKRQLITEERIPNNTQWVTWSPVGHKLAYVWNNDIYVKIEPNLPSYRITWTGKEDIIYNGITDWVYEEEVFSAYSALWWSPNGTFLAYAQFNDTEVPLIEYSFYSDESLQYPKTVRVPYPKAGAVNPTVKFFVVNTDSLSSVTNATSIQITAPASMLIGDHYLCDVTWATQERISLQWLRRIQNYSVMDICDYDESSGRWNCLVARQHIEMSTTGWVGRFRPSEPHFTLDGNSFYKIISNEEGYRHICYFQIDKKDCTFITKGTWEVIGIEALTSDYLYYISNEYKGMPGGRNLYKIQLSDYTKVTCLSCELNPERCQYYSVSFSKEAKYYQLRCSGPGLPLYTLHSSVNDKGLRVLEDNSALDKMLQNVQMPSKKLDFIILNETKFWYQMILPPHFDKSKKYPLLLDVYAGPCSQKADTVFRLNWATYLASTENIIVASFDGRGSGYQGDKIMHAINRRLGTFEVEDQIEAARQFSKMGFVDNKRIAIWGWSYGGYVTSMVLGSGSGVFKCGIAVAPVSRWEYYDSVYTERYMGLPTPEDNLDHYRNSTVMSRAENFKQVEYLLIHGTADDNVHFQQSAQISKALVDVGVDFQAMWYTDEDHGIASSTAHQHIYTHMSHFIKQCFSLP
# T2 sequence (P27487 whole entry): as above
compound,measurement,setting,value
"CC(C)[C@H](N)C(=O)N1CCC[C@H]1C(=O)N1CCC[C@H]1C(=O)N[C@@H](Cc1ccccc1)C(=O)O [Peptide P2, VPPF] (H-VPPF-OH)",IC50,DPP-IV [1],1.57 ± 0.256 mM
"CC(C)C[C@H](NC(=O)[C@@H]1CCCN1C(=O)[C@@H]1CCCN1C(=O)[C@@H](N)CC(C)C)C(=O)O [Peptide P3, LPPL] (H-LPPL-OH; N-terminus and C-terminus assumed)",IC50,DPP-IV [1],2.559 ± 0.0057 mM
"N[C@@H](Cc1ccc(O)cc1)C(=O)N1CCC[C@H]1C(=O)N[C@@H](Cc1ccccc1)C(=O)O [Peptide P4, YPF] (H-Tyr-Pro-Phe-OH)",Cell viability,Caco-2 cells,no significant decrease in cell viability
"CC(C)C[C@H](NC(=O)[C@H](C)NC(=O)[C@@H]1CCCN1)C(=O)N[C@@H](Cc1ccccc1)C(=O)O [Peptide P5, PALF] (H-PALF-OH; N-terminus and C-terminus assumed)",IC50,DPP-IV [1],1.75 ± 0.0299 mM
"CC(C)C[C@H](NC(=O)[C@@H](N)CC(C)C)C(=O)N[C@@H](CC(C)C)C(=O)N1CCC[C@H]1C(=O)O [Peptide P9, LLLP] (H-LLLP-OH; N-terminus and C-terminus assumed)",Cell viability,Caco-2 cells,no significant decrease in cell viability
same,IC50,[2],155 ± 8.41 µM
same,IC50,DPP-IV [1],0.214 ± 0.00064 mM
FLEP,IC50,"DPP-IV [3]; tri- and tetrapeptides containing Pro at the C-terminus, read-out: DPP-IV inhibition IC50",65.3 ± 3.5 µM
FVY [Peptide P6],"DPP-IV Inhibitory Activity (IC50, μM)",DPP-IV [1],not detectable
INNQFLPYPY,IC50,DPP-IV [3]; [4],40.1 µM
IPAVF,IC50,"DPP-IV [3]; identified from bovine β-lactoglobulin, read-out: DPP-IV inhibition IC50",44.7 µM
IPM,IC50,DPP-IV [3]; [5],69.5 ± 8.7 µM
IPYWT,IC50,DPP-IV [3]; [6],18.3 µM
IPYWTY,IC50,DPP-IV [3]; [6],11 µM
LLAP,DPP-IV inhibitory activity (in words),DPP-IV [3],high DPP-IV inhibitory activity
LLW [Peptide P14],"DPP-IV Inhibitory Activity (IC50, μM)",DPP-IV [1],not detectable
same,"DPP-IV Inhibitory Activity (IC50, μM)",DPP-IV [1]; listed as LLW,no DPP-IV inhibitory activity
LPVP,IC50,DPP-IV [3]; [7],87 ± 3.2 µM
LPVPQ,IC50,DPP-IV [3]; [5],43.8 ± 8.8 µM
LVW [Peptide P11],"DPP-IV Inhibitory Activity (IC50, μM)",DPP-IV [1],not detectable
LWV [Peptide P12],"DPP-IV Inhibitory Activity (IC50, μM)",DPP-IV [1],not detectable
LYL [Peptide P7],"DPP-IV Inhibitory Activity (IC50, μM)",DPP-IV [1],not detectable
MPVQA,IC50,DPP-IV [3]; [7],93.3 ± 8 µM
PACGGFYISGRPG,IC50,DPP-IV [3]; [4],9.4 µM
VPF,IC50,DPP-IV [3]; [8],55.1 µM
VPV,IC50,DPP-IV [3]; [8],6.6 µM
WVL [Peptide P10],DPP-IV inhibitory activity (in words),DPP-IV [3]; literature search,previously reported to have DPP-IV inhibitory activity
YPI,IC50,DPP-IV [3]; [8],35 µM
